Data published in patent publication US5643947A, “ω-amino-α-phenylalkanonitrile derivatives” (G. D. Searle & Co., priority 1995, dated 1997).
Where two headings read alike, the source gives them in different places.

What was measured:
5HT2 receptor = biological target: T1, 5HT2 receptor (Rattus norvegicus, UniProt P14842); assay: 5HT2 receptor binding, 3H-ketanserin, rat frontal cortex
T1 construct: frontal cortex preparations of rat; from tissue; host or cells: rat frontal cortex
Method: (§1) Methodological Data for In Vitro Binding Assay of Various Receptors
(§2) KD values (Dissociation Constant) were determined by Scatchard analysis. Ki values (Inhibition Constant) were calculated according to the Cheng and Prusoff equation, using IC50 values: [formula]

[1] = biological target: T2, slow Ca^2+ channel binding sites (Cavia porcellus, UniProt O35505); assay: Ca2+ receptor binding, 3H-nitrendipine competition; design: species or system guinea-pig; details: for competition curve at slow Ca^2+ channel binding sites: 3H-nitrendipine competition, in words; for Ki: guinea-pig forebrain, 3H-nitrendipine 0.2 nM, pH 7.4, 25 °C, 90 min, read-out: CA2^+ BINDING pKi (converted)
T2 construct: forebrain; from tissue; host or cells: guinea-pig forebrain
Method: (§3) Receptor binding experiments were conducted under the experimental conditions described in Table III. ^3 H-nitrendipine is the radioligand of choice to determine, after competition at different concentrations, the affinity of compounds of the invention, for the slow Ca^2+ channel binding sites. […] After this in vitro biochemical testing, the compounds of the invention were tested for their CA^2+ antagonist properties on isolated organs. The method used was updated from M Spedding (Nauyn-Schmiedeberg's Arch. Pharmacol., 318, 234-240, 1982) and can be summarized as follows: Aorta rings from male rats were prepared and maintained in oxygenated Krebs solution at 37° C. The contractions were induced by 40 mM K+ in the absence or in the presence of the test compound. Each test compound was tested at least twice. […] The phasic and tonic parts of each response elicited by K+ were considered separately and were expressed in % of their corresponding controls. The IC50 values (from pIC50) were estimated by plotting the % response against the log of the concentrations.
as §1, §2

Aorta rings = assay: Ca2+ antagonism on isolated rat aorta rings, contractions induced by 40 mM K+; format: cell-based; details: for inhibition of phasic and tonic phases of the contractions: in words
Method: as §3, with “The method used was updated from M Spedding (Nauyn-Schmiedeberg's Arch. Pharmacol., 318, 234-240, 1982) and can be summarized as follows: Aorta rings from male rats were prepared and maintained in oxygenated Krebs solution at 37° C.” left out

α1 -adrenergic receptor = assay: α1-adrenergic receptor binding, 3H-WB4101, rat forebrain; details: for α1 pKi: rat forebrain, 3H-WB-4101 1.6 nM, pH 7.4, 25 °C, 15 min, values marked (2) are estimated; for affinity for the α1 -adrenergic receptor: 3H-WB4101, rat forebrain, in words
Method: as §1, §2

[2] = Acute oral toxicity in mice; details: mouse, in vivo, male mice, mortality over 15 days
Method: Compounds #1, #2 , #3, #4 and #7 were tested for acute toxicity. The acute toxicity was determined after oral administration of the test compound to mice. Compound to be tested was suspended in a 1% tragacanth gum mucilage and was administered by means of an intragastric tube to a group of three male mice per dose. The mortailty was recorded over a period of 15 days.

[3] = system: femoral arterial circulation; assay: Vasodilation in perfused hindlimb of anaesthetized dog; format: in vivo; details: for VASODILATION score: 30 mcg/kg injected into perfused femoral artery, vs papaverine; for vasodilator activity compared with papaverine: 30 mcg/kg, in words
Method: The peripheral vasodilator activity of compounds of the invention was measured in anaesthetized dog at the femoral arterial circulation. For this procedure, the femoral artery (the collaterals of which were ligated) was perfused with a constant flow rate of blood taken from aorta. The perfusion pressure measured at the femoral artery varied as a function of the resistance of the perfused area. The test compounds in diluted solvents were directly injected in the system at a dose of 30 mcg/kg. With the blood circulation rate being maintained constant, vasodilation was thus measured by a decrease of the perfusion pressure, in comparison with the action of papaverine considered as standard. The vasodilator activity was rated as follows:
+: 1/3 of the papaverine activity.
++: 2/3 of the papaverine activity.
+++: activity equal to that of papaverine (i.e. 30 to 40 mm Hg).
++++: activity higher than that of papaverine.

[4] = system: spontaneously hypertensive rats; assay: Antihypertensive activity in spontaneously hypertensive rats (SHR); format: in vivo, rat; details: 60 mg/kg oral; for SHR score: systolic pressure up to 3 hours; for lowering of the systolic blood pressure: SHR
Method: The biological activity of the compounds of the invention was evaluated in vivo on spontaneous hypertensive rats. In this test, antihypertensive activity was tested by oral administration to non-anaesthetized, spontaneously hypertensive rats, on which the systolic arterial pressure was measured at the median coccygeal artery by means of a plethysmographic method [J. Roba, G. Lambelin, A. F. De Schaepdryver, Arch. Int. Pharmacodyn., 200, 182 (1972)]. The arterial pressure was measured every 30 minutes from two hours before to three hours after oral administration of 60 mg/kg of the test compounds or of a placebo (1% tragacanth gum mucilage). Only rats having a systolic pressure of 180 to 220 mmHg were used. Each compound was tested in two rats.
The antihypertensive effects were rated as follows:
+: reduction of 10 to 20 mm Hg.
++: reduction of 20 to 30 mm Hg.
+++: reduction of 30 to 40 mm Hg.
++++: reduction >40 mm Hg.

[5] = system: serotonin-2 (5-HT2) receptors of both blood vessels and brain; details: DeFeudis 1989; cited from earlier work
calcium channel = details: DeFeudis 1989; cited from earlier work
[6] = 37 °C, phasic part, read-out: AORTA/K+ pIC50 phasic (converted)
[7] = 37 °C, tonic part, read-out: AORTA/K+ pIC50 tonic (converted)
[8] = read-out: Concentration inhibiting the contractions by 50%

T2 sequence (O35505 whole entry): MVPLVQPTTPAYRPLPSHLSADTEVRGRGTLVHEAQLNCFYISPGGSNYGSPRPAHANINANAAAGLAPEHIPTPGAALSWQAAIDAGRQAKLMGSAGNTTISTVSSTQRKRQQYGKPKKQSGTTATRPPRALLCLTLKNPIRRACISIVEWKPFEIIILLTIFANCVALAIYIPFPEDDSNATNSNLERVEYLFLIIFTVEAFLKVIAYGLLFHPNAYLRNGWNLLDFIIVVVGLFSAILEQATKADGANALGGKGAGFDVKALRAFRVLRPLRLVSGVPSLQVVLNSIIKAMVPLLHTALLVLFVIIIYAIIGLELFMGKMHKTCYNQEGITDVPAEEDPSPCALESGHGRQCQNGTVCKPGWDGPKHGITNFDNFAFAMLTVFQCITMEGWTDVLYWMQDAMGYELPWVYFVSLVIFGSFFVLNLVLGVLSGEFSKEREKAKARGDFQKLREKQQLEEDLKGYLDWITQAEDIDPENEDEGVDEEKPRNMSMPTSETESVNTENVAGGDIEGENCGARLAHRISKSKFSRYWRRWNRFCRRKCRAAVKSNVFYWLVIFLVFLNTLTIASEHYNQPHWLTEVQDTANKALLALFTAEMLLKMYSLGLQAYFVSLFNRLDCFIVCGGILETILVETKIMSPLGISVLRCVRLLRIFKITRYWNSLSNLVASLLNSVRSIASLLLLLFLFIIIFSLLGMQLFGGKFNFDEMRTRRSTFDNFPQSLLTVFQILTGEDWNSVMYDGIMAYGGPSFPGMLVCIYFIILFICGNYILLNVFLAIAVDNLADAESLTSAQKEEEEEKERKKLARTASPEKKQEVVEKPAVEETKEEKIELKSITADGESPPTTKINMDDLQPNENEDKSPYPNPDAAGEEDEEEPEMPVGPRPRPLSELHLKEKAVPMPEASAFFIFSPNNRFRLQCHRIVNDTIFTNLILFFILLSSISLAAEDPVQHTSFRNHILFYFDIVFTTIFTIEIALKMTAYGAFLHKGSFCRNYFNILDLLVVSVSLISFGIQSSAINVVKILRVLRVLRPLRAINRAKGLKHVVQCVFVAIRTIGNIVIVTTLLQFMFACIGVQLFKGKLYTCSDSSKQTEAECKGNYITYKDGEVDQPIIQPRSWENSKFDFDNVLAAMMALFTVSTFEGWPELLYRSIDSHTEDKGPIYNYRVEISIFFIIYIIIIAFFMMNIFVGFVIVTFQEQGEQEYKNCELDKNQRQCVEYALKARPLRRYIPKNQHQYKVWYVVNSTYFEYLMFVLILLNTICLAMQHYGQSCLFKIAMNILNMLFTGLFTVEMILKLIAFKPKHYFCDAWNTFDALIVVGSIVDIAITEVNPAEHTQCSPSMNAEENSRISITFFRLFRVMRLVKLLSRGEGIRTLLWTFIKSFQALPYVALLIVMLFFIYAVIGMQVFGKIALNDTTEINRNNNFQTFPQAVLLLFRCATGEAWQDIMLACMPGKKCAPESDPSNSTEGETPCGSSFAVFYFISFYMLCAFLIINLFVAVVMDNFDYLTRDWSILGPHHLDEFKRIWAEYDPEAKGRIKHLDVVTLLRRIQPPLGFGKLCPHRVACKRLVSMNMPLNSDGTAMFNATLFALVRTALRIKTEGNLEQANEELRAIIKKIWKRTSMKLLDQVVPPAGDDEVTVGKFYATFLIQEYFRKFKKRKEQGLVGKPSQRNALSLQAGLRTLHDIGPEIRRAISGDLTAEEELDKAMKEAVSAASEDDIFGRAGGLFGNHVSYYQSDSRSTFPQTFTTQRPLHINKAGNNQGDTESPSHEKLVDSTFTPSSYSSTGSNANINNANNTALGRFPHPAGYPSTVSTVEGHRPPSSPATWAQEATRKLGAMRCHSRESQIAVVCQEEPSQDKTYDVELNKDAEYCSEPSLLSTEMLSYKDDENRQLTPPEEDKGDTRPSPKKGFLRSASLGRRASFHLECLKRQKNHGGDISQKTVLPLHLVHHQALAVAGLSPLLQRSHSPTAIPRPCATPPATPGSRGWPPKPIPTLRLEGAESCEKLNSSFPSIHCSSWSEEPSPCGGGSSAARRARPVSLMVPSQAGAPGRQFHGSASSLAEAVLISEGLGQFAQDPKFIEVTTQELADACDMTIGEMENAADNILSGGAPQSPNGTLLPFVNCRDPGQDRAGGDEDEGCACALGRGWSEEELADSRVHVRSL
T1 sequence (P14842 whole entry): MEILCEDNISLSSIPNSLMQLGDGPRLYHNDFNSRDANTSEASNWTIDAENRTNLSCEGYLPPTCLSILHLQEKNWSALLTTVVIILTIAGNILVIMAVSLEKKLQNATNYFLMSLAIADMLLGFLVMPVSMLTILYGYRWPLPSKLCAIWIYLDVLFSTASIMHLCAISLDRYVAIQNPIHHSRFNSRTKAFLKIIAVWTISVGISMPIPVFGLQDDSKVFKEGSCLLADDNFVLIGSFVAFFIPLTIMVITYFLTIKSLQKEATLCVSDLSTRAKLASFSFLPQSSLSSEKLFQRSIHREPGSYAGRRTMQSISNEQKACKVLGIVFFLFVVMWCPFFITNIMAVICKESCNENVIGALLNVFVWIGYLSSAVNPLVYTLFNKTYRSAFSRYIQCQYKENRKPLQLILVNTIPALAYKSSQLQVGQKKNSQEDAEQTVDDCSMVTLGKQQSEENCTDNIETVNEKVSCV

Compound	Ki (5HT2 receptor) [nM]	competition curve at slow Ca^2+ channel binding sites [1]	Ki [1] [nM]	α1 pKi (α1 -adrenergic receptor)	affinity for the α1 -adrenergic receptor (α1 -adrenergic receptor)	LD50 at 360 h [2] [mg/kg]	VASODILATION score [3]	further results
CCCCCCCCCCN(C)CCCC(C#N)(c1ccc(OC)c(OC)c1)C(C)C (centres unmarked) [compound 6, 5-[(n-decyl)methylamino]-2-(3,4-dimethoxyphenyl)-2-isopropylvaleronitrile]	100	reaching the non-specific level	39.8	< 6	–	–	–	IC50 (Aorta rings; 37 °C, one value printed for phasic/tonic, read-out: AORTA/K+ pIC50 phasic/tonic (converted)): ≥ 1000 nM
CCCCCCCCNCCCC(C#N)(c1ccc(OC)c(OC)c1)C(C)C (centres unmarked) [compound 8]	158	reaching the non-specific level	126	6.7	display affinity for the α1 -adrenergic receptor	–	–	–
CCCCCCCCN(CCCC(C#N)(c1ccc(OC)c(OC)c1)C(C)C)Cc1ccccc1 (centres unmarked) [compound 5]	> 1000	reaching the non-specific level	501	≤ 6	–	–	–	–
CCOC(=O)C1=C(C)NC(C)=C(C(=O)OC)C1c1cccc([N+](=O)[O-])c1 (centres unmarked) [nitrendipine, reference compound]	–	–	–	–	–	–	–	Kd [1]: 0.2 nM
COc1ccc(C(C#N)(CCCN(C)CCCc2ccccc2)C(C)C)cc1OC (centres unmarked) [compound 4]	31.6	does not reach the non-specific base-line	–	≤ 6	–	540	–	–
COc1ccc(C(C#N)(CCCN(C)CCCCCc2ccccc2)C(C)C)cc1OC (centres unmarked) [compound 3, 5-[5-(phenylpentyl)methylamino]-2-(3,4-dimethoxyphenyl)-2-isopropylvaleronitrile]	10	reaching the non-specific level	251	≤ 6	–	470	+++ (activity equal to that of papaverine (i.e. 30 to 40 mm Hg).)	–
CCCCCCCCN(C)CCCC(C#N)(c1ccc(OC)c(OC)c1)C(C)C (centres unmarked) [Compound #1, 5-[(n-octyl)methylamino]-2-(3,4-dimethoxyphenyl) -2-isopropyl-valeronitrile]	100	does not reach the non-specific base-line	–	≤ 6	–	> 300	++++	SHR score [4]: ++++ (reduction >40 mm Hg.); lowering of the systolic blood pressure [4]: more than 40 mm Hg; IC50 (Aorta rings; [6]): 200 nM; IC50 (Aorta rings; [7]): 200 nM; inhibition of phasic and tonic phases of the contractions (Aorta rings): similarly inhibited; IC50 (Aorta rings; [8]): 200 nM; vasodilator activity compared with papaverine [3]: more active than papaverine
COc1ccc(C(C#N)(CCCN(C)CCCCc2ccccc2)C(C)C)cc1OC (centres unmarked) [Compound #2, 5-[(4-phenylbutyl)methylamino]-2-(3,4-dimethoxyphenyl)-2-isopropylvaleronitrile]	100	does not reach the non-specific base-line	–	7	display affinity for the α1 -adrenergic receptor	350	++++	SHR score [4]: ++++ (reduction >40 mm Hg.); lowering of the systolic blood pressure [4]: more than 40 mm Hg; IC50 (Aorta rings; [6]): 63.1 nM; IC50 (Aorta rings; [7]): 100 nM; inhibition of phasic and tonic phases of the contractions (Aorta rings): similarly inhibited; IC50 (Aorta rings; [8]): 60 nM; vasodilator activity compared with papaverine [3]: more active than papaverine
CC(C)[C@@](C#N)(CCCN(C)CCc1ccccc1)c1ccccc1 [(S)-emopamil]	–	–	–	–	–	–	–	action at serotonin-2 (5-HT2) receptors [5]: antagonist at serotonin-2 (5-HT2) receptors; calcium channel blocking activity (calcium channel): showing calcium channel blocking activity
COc1ccc(C(C#N)(CCCN(C)CC=Cc2ccccc2)C(C)C)cc1OC (centres unmarked) [compound 7]	–	does not reach the non-specific base-line	–	6.8	display affinity for the α1 -adrenergic receptor	> 1000	–	–
